According to ChEMBL document CHEMBL1201862, “PubChem BioAssay data set” (2004):
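Protocol summary: plate cells (96-well), add compound at 5 concentrations, incubate 48 h, interpolate endpoints linearly. GI50 = concentration required for 50% inhibition of growth.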 The source made the active and inactive calls. Cut-off read from the data, not from the text of the source: active = GI50 up to about 1.1 µM and inactive = higher.

Tests used:
Experiment in all cases: NCI anticancer screen, dose series, 48 h
COLO 205 = tested on: COLO 205
HT-29 = tested on: HT-29
Hs-578T = tested on: Hs-578T
K562 = tested on: K562
MCF7 = tested on: MCF7
MDA-MB-435 = tested on: MDA-MB-435
MDA-N = tested on: MDA-N
NCI-H460 = tested on: NCI-H460
OVCAR-5 = tested on: OVCAR-5
RPMI-8226 = tested on: RPMI-8226
SF-268 = tested on: SF-268
SN12C = tested on: SN12C
SNB-19 = tested on: SNB-19
SNB-75 = tested on: SNB-75
SW-620 = tested on: SW-620
U-251 = tested on: U-251
UACC-257 = tested on: UACC-257
UACC-62 = tested on: UACC-62
OVCAR-4 = tested on: OVCAR-4

| SMILES | GI50 (COLO 205) | GI50 (HT-29) | GI50 (Hs-578T) | GI50 (K562) | GI50 (MCF7) | GI50 (MDA-MB-435) | GI50 (MDA-N) | GI50 (NCI-H460) | GI50 (OVCAR-5) | GI50 (RPMI-8226) | GI50 (SF-268) | GI50 (SN12C) | GI50 (SNB-19) | GI50 (SNB-75) | GI50 (SW-620) | GI50 (U-251) | GI50 (UACC-257) | GI50 (UACC-62) | GI50 (OVCAR-4) |
| --- | --- | --- | --- | --- | --- | --- | --- | --- | --- | --- | --- | --- | --- | --- | --- | --- | --- | --- | --- |
| COc1cccc(C2c3cc4c(cc3OC(NNS(=O)(=O)c3ccc(C)cc3)C2C)OCO4)c1OC (stereo unspecified) | 1.83 µM (inactive) | 3.18 µM (inactive) | 1.83 µM (inactive) | 2.12 µM (inactive) | 2.99 µM (inactive) | 3.57 µM (inactive) | 3.37 µM (inactive) | 2.67 µM (inactive) | 4.82 µM (inactive) | 2.28 µM (inactive) | 4.3 µM (inactive) | 3.2 µM (inactive) | 3.59 µM (inactive) | 2.52 µM (inactive) | 3.08 µM (inactive) | 2.62 µM (inactive) | 2.7 µM (inactive) | 3.75 µM (inactive) |  |
| COP(=O)(CC(=O)C1OC(OCc2ccccc2)C(OCc2ccccc2)C(OCc2ccccc2)C1OCc1ccccc1)OC (stereo unspecified) | 3.78 µM (inactive) | 6.19 µM (inactive) | 23.9 µM (inactive) | 4.31 µM (inactive) | 4.74 µM (inactive) | 5.38 µM (inactive) | 4.27 µM (inactive) | 4.24 µM (inactive) | 17.6 µM (inactive) |  | 12.8 µM (inactive) | 3 µM (inactive) | 11.4 µM (inactive) | 7.76 µM (inactive) | 12.8 µM (inactive) | 6.37 µM (inactive) | 6.81 µM (inactive) | 4.12 µM (inactive) | 2.19 µM (inactive) |
| C[C@]12CC[C@H](O)C[C@H]1CC[C@@H]1[C@@H]2CC[C@]2(C)[C@@H](C3=CC(=O)OC3)CC[C@]12O [DIGITOXIGENIN] | 0.44 µM (active) | 0.209 µM (active) | 0.0673 µM (active) | 0.0536 µM (active) |  | 0.217 µM (active) | 0.168 µM (active) | 0.0168 µM (active) | 0.59 µM (active) | 0.0757 µM (active) | 0.0367 µM (active) | 0.0349 µM (active) | 0.851 µM (active) | 0.299 µM (active) | 0.118 µM (active) | 0.199 µM (active) | 0.303 µM (active) | 0.36 µM (active) | 0.0662 µM (active) |
| Cn1nc(-c2ccccc2)nc1[N+](=O)[O-] | > 10 µM (inactive) | > 10 µM (inactive) | > 10 µM (inactive) | > 10 µM (inactive) |  | > 10 µM (inactive) | > 10 µM (inactive) | > 10 µM (inactive) | > 10 µM (inactive) | > 10 µM (inactive) | > 10 µM (inactive) | > 10 µM (inactive) | > 10 µM (inactive) | > 10 µM (inactive) | > 10 µM (inactive) | > 10 µM (inactive) | > 10 µM (inactive) | > 10 µM (inactive) | > 10 µM (inactive) |
| CC(=O)C(=[N+]=[N-])C(=O)OCCOC(=O)C(=[N+]=[N-])C(C)=O |  | > 1 µM (active) | > 1 µM (active) | > 1 µM (active) | > 1 µM (active) | > 1 µM (active) | > 1 µM (active) | > 1 µM (active) | > 1 µM (active) | > 1 µM (active) | > 1 µM (active) | > 1 µM (active) | > 1 µM (active) | > 1 µM (active) |  | > 1 µM (active) | > 1 µM (active) | > 1 µM (active) |  |
| c1csc(-c2cc(-c3cccs3)c(-c3cccs3)s2)c1 | 40.6 µM (inactive) | 39.3 µM (inactive) | > 100 µM (inactive) | 79.1 µM (inactive) | 18.5 µM (inactive) | 37.8 µM (inactive) | 32 µM (inactive) | 47.2 µM (inactive) | > 100 µM (inactive) |  | > 100 µM (inactive) | > 100 µM (inactive) | > 100 µM (inactive) | 21.2 µM (inactive) | > 100 µM (inactive) | 75.5 µM (inactive) | 55.3 µM (inactive) | 54.2 µM (inactive) | > 100 µM (inactive) |
